Measured values published in US10016382B2, “Method for decreasing skeletal muscle damage and/or oxidative stress in mammals” (LONZA INC., priority 2014, dated 2018).

What was measured:
[1] = Food offered and food consumption (per day, per kg BW, per kg lean mass), Example 2 part one; format: in vivo, dog
Description: The performance dogs were weighed at the beginning of the study and at one week intervals until the end of part one. Feed consumption and refusals were determined daily by weighing and recording the amount offered or refused. The quantity of food provided to each dog on a daily basis was adjusted based on the goal of maintaining the dog's minimum body weight throughout the study. The consumption per kg of lean mass was determined by dividing the mean lean mass of each group into its mean daily food consumption value at the initial and then the final body scans.

Labrador Retrievers = test: Energy expenditure on treadmill (Oxymax open-circuit calorimeter), Example 2 part three; format: in vivo, dog; details: for Max energy expenditure / Mean energy expenditure: females
Description: Sixteen Labrador Retrievers ranging in age from 1.5 to 3 years were fed low carnitine basal diets with and without added L-carnitine for a 37 week period that included part one and two of the study. Eight (4 male and 4 female) of the test L-carnitine dogs were each fed 3.75 g sugar and 250 mg of L-carnitine, while the other eight dogs (4 male and 4 female) were fed only 4 g of sugar each day for the experimental period. The sixteen test dogs were fed the same diet for parts one, two, and three of the study. During part three of the study, the 16 test dogs were exclusively exercised on the industry sized canine treadmill. Initial Oxymax data was developed for each of the test dogs at various times and speeds in order to determine appropriate speeds on the treadmill required to achieve maximum VO2 concentration. The dogs were run for 15 minutes at 6.5 mph to determine VO2 max. The 16 test dogs were then ran at 50% VO2 max (equivalent to 4 mph) on the treadmill for 30 minutes to determine total energy expenditure (heat production). The system used to acquire information on volume of oxygen consumption and energy expenditure was an Open-Circuit calorimeter, which employed air from the surrounding environment. A mask specially designed for dogs was used to recover the gas sample and ventilate the dog. A small sample was drawn for gas analysis and dried to assure that the readings were made in a sample that was not under the influence of water vapor air exiting the chamber. The O2 and CO2 sensors were connected to software, and instant values of O2 and CO2 were measured. The 16 test dogs (8 L-carnitine dogs, 4 male and 4 female, and 8 control dogs, 4 male and 4 female) were exercised at a warm up speed of 2 mph for 5 minutes prior to running at VO2 max for 15 minutes at 6.5 mph. The next week, the test dogs ran again at a warm up speed of 2 mph for 5 minutes and then at 50% VO2 max for 30 minutes at 4 mph. Energy expenditure was calculated using the formula for dogs (EE (kcal/d)=3.94 VO2+1.11 V CO2) (Weir, […]). The maximum and mean energy expenditure was also calculated. Energy expenditure was reported at Kcal/metabolic body weight (Kg^0.75)/d as normally expressed in the literature for dogs.

[2] = Ex.2 part one, 250 mg/d, 14 week study
[3] = Ex.2 part one, 250 mg/d, week 1
[4] = Ex.2 part three, 250 mg/d, 6.5 mph (VO2 max)
[5] = Ex.2 part three, 250 mg/d, 50% VO2 max (4 mph, 30 min)
[6] = combined speeds 4.0 and 6.5 (50% VO2 Max and VO2 Max), diet main effect, both genders
[7] = combined speeds 4.0 and 6.5 (50% VO2 Max and VO2 Max), female dogs
[8] = combined speeds 4.0 and 6.5 (50% VO2 Max and VO2 Max), male dogs
[9] = treadmill speed 4 for 30 min (50% VO2 Max), diet main effect, both genders
[10] = treadmill speed 4 for 30 min (50% VO2 Max), female dogs
[11] = treadmill speed 4 for 30 min (50% VO2 Max), male dogs
[12] = treadmill speed 6.5 for 15 min (VO2 Max), diet main effect, both genders
[13] = treadmill speed 6.5 for 15 min (VO2 Max), female dogs
[14] = treadmill speed 6.5 for 15 min (VO2 Max), male dogs

## C[N+](C)(C)C[C@H](O)CC(=O)[O-] [L-carnitine]
[1]; Change, F
  Mean Food Intake Over 14 wk Duration/Lean Mass: −2.46 g/d/kg Lean Mass
[1]; Change, M
  Mean Food Intake Over 14 wk Duration/Lean Mass: −1.98 g/d/kg Lean Mass
[1]; [2]
  Overall mean amount of food offered per day: 677 g/day
  Overall mean food intake per day: 574 g/day
[1]; Ex.2 part one, 250 mg/d, Final body composition scan
  Mean food intake per kg lean mass: 24.02 g/d/kg LM
[1]; Ex.2 part one, 250 mg/d, Initial body composition scan
  Mean food intake per kg lean mass: 26.24 g/d/kg LM
[1]; Ex.2 part one, 250 mg/d, final minus initial over 14 wks
  Change in mean food intake per kg lean mass: −2.22 g/d/kg LM
[1]; [3]
  Amount of food consumed: 618.25 g/day
  Food consumption per kg body weight: 20.96 g/d/kg BW
  Intake of kcals of ME: 83.83 kcal/d/kg BW
[1]; Ex.2 part one, 250 mg/d, week 4
  Amount of food consumed: 629.43 g/day
[1]; Final, F
  Mean Food Intake Over 14 wk Duration/Lean Mass: 27.46 g/d/kg Lean Mass
[1]; Final, M
  Mean Food Intake Over 14 wk Duration/Lean Mass: 20.58 g/d/kg Lean Mass
[1]; Initial, F
  Mean Food Intake Over 14 wk Duration/Lean Mass: 29.92 g/d/kg Lean Mass
[1]; Initial, M
  Mean Food Intake Over 14 wk Duration/Lean Mass: 22.56 g/d/kg Lean Mass
[1]; Week 1
  Daily Food Intake: 618.25 ± 22.33 g
  Daily Food Intake (ME): 83.83 ± 1.85 kcal ME/d/kg BW
  Daily Food Intake per kg BW: 20.96 ± 0.46 g/d/kg BW
[1]; Week 2
  Daily Food Intake: 608.79 ± 22.8 g
  Daily Food Intake (ME): 85.21 ± 2.22 kcal ME/d/kg BW
  Daily Food Intake per kg BW: 21.3 ± 0.55 g/d/kg BW
[1]; Week 3
  Daily Food Intake: 600.54 ± 19.89 g
  Daily Food Intake (ME): 82.87 ± 2.34 kcal ME/d/kg BW
  Daily Food Intake per kg BW: 20.72 ± 0.58 g/d/kg BW
[1]; Week 4
  Daily Food Intake: 629.43 ± 21.4 g
  Daily Food Intake (ME): 86.54 ± 2.08 kcal ME/d/kg BW
  Daily Food Intake per kg BW: 21.64 ± 0.52 g/d/kg BW
[1]; Week 5
  Daily Food Intake: 597.07 ± 18.65 g
  Daily Food Intake (ME): 81.86 ± 1.82 kcal ME/d/kg BW
  Daily Food Intake per kg BW: 20.47 ± 0.45 g/d/kg BW
[1]; Week 6
  Daily Food Intake: 579.11 ± 21.17 g
  Daily Food Intake (ME): 78.87 ± 2.06 kcal ME/d/kg BW
  Daily Food Intake per kg BW: 19.72 ± 0.51 g/d/kg BW
[1]; Week 7
  Daily Food Intake: 584.5 ± 18.91 g
  Daily Food Intake (ME): 79.61 ± 1.97 kcal ME/d/kg BW
  Daily Food Intake per kg BW: 19.91 ± 0.49 g/d/kg BW
[1]; Week 8
  Daily Food Intake: 547.14 ± 20.91 g
  Daily Food Intake (ME): 74.21 ± 2.16 kcal ME/d/kg BW
  Daily Food Intake per kg BW: 18.55 ± 0.54 g/d/kg BW
[1]; Week 9
  Daily Food Intake: 602.79 ± 23.4 g
  Daily Food Intake (ME): 81.55 ± 2.2 kcal ME/d/kg BW
  Daily Food Intake per kg BW: 20.39 ± 0.55 g/d/kg BW
[1]; Week 10
  Daily Food Intake: 580.04 ± 21.88 g
  Daily Food Intake (ME): 78.76 ± 2.25 kcal ME/d/kg BW
  Daily Food Intake per kg BW: 19.69 ± 0.56 g/d/kg BW
[1]; Week 11
  Daily Food Intake: 543.89 ± 19.79 g
  Daily Food Intake (ME): 73.79 ± 2.09 kcal ME/d/kg BW
  Daily Food Intake per kg BW: 18.45 ± 0.52 g/d/kg BW
[1]; Week 12
  Daily Food Intake: 493.68 ± 19.06 g
  Daily Food Intake (ME): 66.64 ± 1.71 kcal ME/d/kg BW
  Daily Food Intake per kg BW: 16.66 ± 0.43 g/d/kg BW
[1]; Week 13
  Daily Food Intake: 511.82 ± 22.64 g
  Daily Food Intake (ME): 68.71 ± 2.06 kcal ME/d/kg BW
  Daily Food Intake per kg BW: 17.18 ± 0.51 g/d/kg BW
[1]; Week 14
  Daily Food Intake: 543.5 ± 26.43 g
  Daily Food Intake (ME): 73.21 ± 2.75 kcal ME/d/kg BW
  Daily Food Intake per kg BW: 18.3 ± 0.69 g/d/kg BW
Labrador Retrievers; Ex.2 part three, 250 mg/d, female running at 50% of VO2 Max
  Additional heat expenditure vs non-L-carnitine diet: 122 kcal/kg BW^0.75/d
Labrador Retrievers; [4]
  Max energy expenditure: 961 kcal/kgBW^0.75/d
  Mean energy expenditure: 815 kcal/kgBW^0.75/d
Labrador Retrievers; [5]
  Max energy expenditure: 794 kcal/kg^0.75/d
  Mean energy expenditure: 598 kcal/kg^0.75/d
Labrador Retrievers; Ex.2 part three, 250 mg/d, males, Tables 35 and 36
  Max and mean energy expenditure vs low carnitine dogs: not significantly different
Labrador Retrievers; Ex.2 part three, 250 mg/d, working female running at 50% VO2 Max (4 mph) for one hour
  Quantity of low Carnitine basal food saved: 15.18 g
Labrador Retrievers; [6]
  Max EE: 793 Kcal/Kg^0.75/d
  Mean EE: 675 Kcal/Kg^0.75/d
Labrador Retrievers; [7]
  Max EE: 838 Kcal/Kg^0.75/d
  Mean EE: 679 Kcal/Kg^0.75/d
Labrador Retrievers; [8]
  Max EE: 748 Kcal/Kg^0.75/d
  Mean EE: 671 Kcal/Kg^0.75/d
Labrador Retrievers; [9]
  Max EE: 716 Kcal/Kg^0.75/d
  Mean EE: 576 Kcal/Kg^0.75/d
Labrador Retrievers; [10]
  Max EE: 794 a Kcal/Kg^0.75/d
  Mean EE: 598 a Kcal/Kg^0.75/d
Labrador Retrievers; [11]
  Max EE: 637 ab Kcal/Kg^0.75/d
  Mean EE: 554 ab Kcal/Kg^0.75/d
Labrador Retrievers; [12]
  Max EE: 909 Kcal/Kg^0.75/d
  Mean EE: 801 Kcal/Kg^0.75/d
Labrador Retrievers; [13]
  Max EE: 961 Kcal/Kg^0.75/d
  Mean EE: 815 Kcal/Kg^0.75/d
Labrador Retrievers; [14]
  Max EE: 858 Kcal/Kg^0.75/d
  Mean EE: 788 Kcal/Kg^0.75/d
